From patent publication US5605929A, “Methods and compositions for inhibiting 5α-reductase activity” (priority 1995, dated 1997)
Like-named read-outs stand apart in the source and are kept apart here.

Target: T1, 5α-Reductase of Rat Liver Microsomes (Rattus norvegicus, UniProt P24008)
T1 sequence (P24008 1-259): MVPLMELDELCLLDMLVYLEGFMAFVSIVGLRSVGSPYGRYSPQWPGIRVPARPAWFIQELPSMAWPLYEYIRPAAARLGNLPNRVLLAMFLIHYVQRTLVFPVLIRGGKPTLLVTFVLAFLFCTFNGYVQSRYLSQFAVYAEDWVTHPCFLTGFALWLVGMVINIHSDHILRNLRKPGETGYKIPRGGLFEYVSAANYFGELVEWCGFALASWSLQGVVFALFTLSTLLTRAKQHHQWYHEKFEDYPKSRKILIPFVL
Experiment: biochemical
Settings: for inhibition at 5 µM: read-out: % Inhibition of [^3 H]4-MA binding, Table 2, 5 μM

[1] = read-out: % Inhibition of [^3 H]4-MA binding, Table 2, 10 μM
[2] = read-out: % Inhibition of [^3 H]4-MA binding, Table 2, 40 μM
[3] = read-out: % Inhibition of [^3 H]4-MA binding, Table 2, 200 μM
[4] = read-out: % Inhibition of [^3 H]4-MA binding
[5] = read-out: % Inhibition of [^3 H]4-MA binding, Table 1, 10 μM
[6] = read-out: % Inhibition of [^3 H]4-MA binding, Table 1, 40 μM
[7] = read-out: % Inhibition of [^3 H]4-MA binding, Table 1, 200 μM

Description: Briefly, the binding assay solution, in a final volume of 0.15 ml, contained microsomes (2-20 μg of protein), 0.08 μCi of [^3 H]4-MA, 0.1 mM-NADPH, 1 mM-dithiothreitol and 50 mM-potassium phosphate, pH 7.0, with or without the indicated amount of a lipid or an inhibitor preparation. Lipids were dissolved in ethanol and added in 1-5 μl volumes. Control tubes received the same amount of ethanol. After incubation at 0° C. for 1 h, the [^3 H]4-MA bound to microsomes was determined by collecting microsomes on a Whatman GF/1F glass fibre filter and washing with 10 ml of 20 mM-potassium phosphate, pH 7.0, containing 0.01% CHAPS to remove unbound [^3 H]4-MA.
Microsomes were prepared at 4° C. from a buffered 0.32M-sucrose homogenate of human liver and from the livers of adult Sprague-Dawley female rats by differential centrifugation as described previously (Liang et al., 1990), and were used in the assay of 5α-reductase activity. In some experiments, microsomes were solubilized with 0.1% polyoxyethylene ether W-1 as described previously (Liang et al., 1990), except for the substitution of polyoxyethylene ether W-1 for Lubrol-WX.

Row | SMILES | IC50 | inhibition at 5 µM | inhibition at 10 µM [1] | inhibition at 40 µM [2] | inhibition at 200 µM [3] | inhibition at 40 µM [4] | inhibition at 200 µM [4] | inhibition at 10 µM [4] | inhibition at 10 µM [5] | inhibition at 40 µM [6] | inhibition at 200 µM [7]
1 | CCCCC/C=C\C/C=C\C/C=C\C/C=C\CCCCCC(=O)O | 46 µM | < 10% | < 10% | 41% | 79% |  |  |  |  |  | 
2 | CCCCCCCC/C=C\CCCCCCCCCCC(=O)O | 154 µM | < 10% | 15% | 25% | 60% |  |  |  |  |  | 
3 | CCCCCCCCC=CCC=CCC=CCCCC(=O)O [5,8,11-eicosatrienoic acid] | 50 µM |  |  |  |  |  |  |  |  |  | 
4 | CCCCCCCCCCCCCC/C=C\CCCC(=O)O [5-Eicosenoic Acid, 5-eicosenoic acid] | > 200 µM | < 10% | < 10% | < 10% | < 10% |  |  |  |  |  | 
5 | CCCCC/C=C\C/C=C\C/C=C\CCCCCCC(=O)O [8,11,14-cis-Eicosatrienoic Acid, 8,11,14-eicosatrienoic acid] | 15 µM | < 10% | 42% | 92% | 82% |  |  |  |  |  | 
6 | CCCCCCCCCCC/C=C\CCCCCCC(=O)O [8-Eicosenoic Acid, 8-eicosenoic acid] | 48 µM | 14% | 41% | 52% | 81% |  |  |  |  |  | 
7 | CCCCC/C=C\C/C=C\CCCCCCCCC(=O)O [10,13-Nonadecadienoic Acid, 10,13-nonadecadienoic acid] | 86 µM | < 10% | < 10% | 37% | 83% |  |  |  |  |  | 
8 | CCCC/C=C\CCCCCCCCC(=O)O [10-Pentadecenoic Acid, 10-pentadecenoic acid] | 100 µM | < 10% | < 10% | < 10% | 71% |  |  |  |  |  | 
9 | CCCCCC/C=C\CCCCCCCCC(=O)O [10-cis-Heptadecenoic Acid, 10-heptadecenoic acid] | 28 µM | < 10% | < 10% | 83% | 84% |  |  |  |  |  | 
10 | CCCCCCCC/C=C\CCCCCCCCC(=O)O [10-cis-Nonadecenoic Acid, 10-nonadecenoic acid] | 130 µM | < 10% | < 10% | 13% | 79% |  |  |  |  |  | 
11 | CCCCCC/C=C/CCCCCCCCC(=O)O [10-trans-Heptadecenoic Acid, 10-trans-heptadecenoicacid] | > 200 µM | < 10% | < 10% | < 10% | 40% |  |  |  |  |  | 
12 | CCCCCCCC/C=C/CCCCCCCCC(=O)O [10-trans-Nonadecenoic Acid, 10-trans nonadecenoic acid] | > 200 µM | < 10% | < 10% | < 10% | 32% |  |  |  |  |  | 
13 | CC/C=C\C/C=C\C/C=C\CCCCCCCCCC(=O)O [11,14,17-cis-Eicosatrienoic Acid, 11,14,17-eicosatrienoic acid] | 29 µM | < 10% | 1% | 78% | 94% |  |  |  |  |  | 
14 | CC/C=C\C/C=C\C/C=C\CCCCCCCCCC(=O)Cl [11,14,17-cis-Eicosatrienoyl Chloride, 11,14,17-eicosatrienoyl chloride] | > 200 µM | < 10% | < 10% | < 10% | < 10% |  |  |  |  |  | 
15 | CCCCC/C=C\C/C=C\CCCCCCCCCC(=O)OC [11,14-cis-Eicosadienoate, methyl 11,14 eicosadienoate] | > 200 µM | < 10% | < 10% | < 10% | < 10% |  |  |  |  |  | 
16 | CCCCC/C=C\C/C=C\CCCCCCCCCC(=O)O [11,14-cis-Eicosadienoic Acid, 11,14 eicosadienoic acid] | 131 µM | < 10% | < 10% | < 10% | 89% |  |  |  |  |  | 
17 | CCCCC/C=C\C/C=C\CCCCCCCCCC(=O)Cl [11,14-cis-Eicosaidienoyl Chloride, 11,14-eicosadienoyl chloride] | > 200 µM | < 10% | < 10% | < 10% | < 10% |  |  |  |  |  | 
18 | CCCCC/C=C/C/C=C/CCCCCCCCCC(=O)O [11,14-trans-Eicosadienoic Acid, trans 11,14-eicosadienoic acid] | > 200 µM | < 10% | < 10% | < 10% | < 10% |  |  |  |  |  | 
19 | CCCCCCCC/C=C\CCCCCCCCCC(=O)O [11-Eicosenoic Acid, 11 eicosenoic acid] | 146 µM | < 10% | < 10% | 15% | 76% |  |  |  |  |  | 
20 | CCCCCC/C=C\CCCCCCCCCC(=O)O [11-Octadecenoic Acid, 11-octadecenoic acid] | 26 µM | < 10% | 14% | 55% | 81% |  |  |  |  |  | 

Row | SMILES | IC50 | inhibition at 5 µM | inhibition at 10 µM [1] | inhibition at 40 µM [2] | inhibition at 200 µM [3] | inhibition at 40 µM [4] | inhibition at 200 µM [4] | inhibition at 10 µM [4] | inhibition at 10 µM [5] | inhibition at 40 µM [6] | inhibition at 200 µM [7]
21 | CCCCC/C=C\CCCCCCCCCCC(=O)O [12-Octadecenoic Acid, 12-octadecenoic acid] | > 200 µM | < 10% | < 10% | < 10% | < 10% |  |  |  |  |  | 
22 | CCCCCC/C=C\CCCCCCCCCCC(=O)O [12-cis-Nonadecenoic Acid, 12-nonadecenoic acid] | 90 µM | < 10% | < 10% | 32% | 91% |  |  |  |  |  | 
23 | CC/C=C\C/C=C\C/C=C\CCCCCCCCCCCC(=O)O [13,16,19-Docosatrienoic Acid, 13,16,19-docosatrienoic acid] | 163 µM | < 10% | < 10% | < 10% | 65% |  |  |  |  |  | 
24 | CCCCC/C=C\C/C=C\CCCCCCCCCCCC(=O)O [13,16-Docosadienoic Acid, 13,16-docosadienoic acid] | 118 µM | < 10% | < 10% | 21% | 93% |  |  |  |  |  | 
25 | CCCC/C=C\CCCCCCCCCCCC(=O)O [13-Octadecenoic Acid, 13-octadecenoic acid] | 93 µM | < 10% | < 10% | < 10% | 57% |  |  |  |  |  | 
26 | CCCCCCCC/C=C\CCCCCCCCCCCCC(=O)O [14-Tricosenoic Acid, 14 tricosenoic acid] | > 200 µM | < 10% | < 10% | < 10% | 36% |  |  |  |  |  | 
27 | CCCCCCCCCCCCCCCCCCCC(=O)Cl [Arachidoyl Chloride, archidoyl chloride] | > 200 µM |  | < 10% | < 10% | < 10% |  |  |  |  |  | 
28 | CCCCC/C=C\C/C=C\CCCCCCCC(=O)OC [Linoleic acid methyl ester] |  |  |  |  |  | < 10% | < 10% |  |  |  | 
29 | CC/C=C\C/C=C\C/C=C\CCCCCCCC(=O)Cl [Linolenoyl Chloride] |  |  |  |  |  |  | < 10% |  |  |  | 
30 | CCCCC/C=C\C/C=C\CCCCCCCCO [Linoleyl alcohol] |  |  |  |  |  | < 10% | 25 ± 5% | < 10% |  |  | 
31 | CC/C=C\C/C=C\C/C=C\C/C=C\CCCCC(=O)O [Octadecatetraenoic acid] | 57 µM |  | < 10% | 40% | 88% |  |  |  | < 10% | 40 ± 6% | 88 ± 2%
32 | CCCCCCCC/C=C\CCCCCCCC(=O)OC [Oleic acid methyl ester] |  |  |  |  |  | < 10% | < 10% |  |  |  | 
33 | CCCCCCCC/C=C\CCCCCCCCO [Oleyl alcohol] |  |  |  |  |  | < 10% | < 10% |  |  |  | 
34 | CCCCCC/C=C/CCCCCCCC(=O)O [Palmitelaidic Acid] |  |  |  |  |  |  | < 10% |  |  |  | 
35 | CCCCCC/C=C\CCCCCCCC(=O)OC [Palmitoleic acid methyl ester] |  |  |  |  |  | < 10% | < 10% |  |  |  | 
36 | CCCCCC/C=C\CCCCCCCC(=O)O [Palmitoleic acid] | 108 µM |  | < 10% | 16% | 73% |  |  |  | < 10% | 16 ± 5% | 73 ± 7%
37 | CCCCCC/C=C\CCCCCCCCO [Palmitoleyl alcohol] |  |  |  |  |  | < 10% | 16 ± 4% |  |  |  | 
38 | CCCCCCCCCCC/C=C\CCCCC(=O)O [Petroselinic acid] |  |  |  | < 10% | 52% |  |  |  |  | < 10% | 52 ± 9%
39 | CCCCC/C=C\C/C=C\C/C=C\CCCCC(=O)OCC(COC(=O)CCCC/C=C\C/C=C\C/C=C\CCCCC)OC(=O)CCCC/C=C\C/C=C\C/C=C\CCCCC [Tri-γ-Linolenin, tri-γ-linolenin] | > 200 µM | < 10% | < 10% | < 10% | < 10% |  |  |  |  |  | 
40 | CCCCC/C=C\C/C=C\C/C=C\CCCCC(=O)O[C@H]1CC[C@@]2(C)C(=CC[C@H]3[C@@H]4CC[C@H]([C@H](C)CCCC(C)C)[C@@]4(C)CC[C@@H]32)C1 [cholesteryl γ-linolenate] | > 200 µM |  |  |  |  |  |  |  |  |  | 
